In ChEMBL document CHEMBL4390668, “Discovery and Structural Optimization of Acridones as Broad-Spectrum Antimalarials” (J Med Chem, 2019):
pIC50: −log10 of the molar value. Calls of active or inactive are those of the source. No cut-off for these calls is given here.

Columns and labels:
Plasmodium falciparum [1] = assay: Antimalarial activity against multidrug-resistant Plasmodium falciparum 7G8 infected in human erythrocytes by SYBR green 1-based fluorescence assay; assay type: functional, organism-based
Plasmodium falciparum [2] = assay: Inhibition of Plasmodium falciparum cytochrome b-c1
Plasmodium falciparum [3] = assay: Antimalarial activity against drug-resistant Plasmodium falciparum Dd2 harboring V259L mutant infected in human erythrocytes after 72 hrs by SYBR green 1-based fluorescence assay; assay type: functional, organism-based; details: Dd2, 72 h
[4] = Half life in human liver microsomes at 1 uM by LC-MS analysis; assay type: ADME, Microsome
Plasmodium falciparum [5] = assay: Antimalarial activity against drug-resistant Plasmodium falciparum Dd2 harboring M133I/A138T double mutant infected in human erythrocytes after 72 hrs by SYBR green 1-based fluorescence assay; assay type: functional, organism-based; details: Dd2, 72 h
Plasmodium falciparum [6] = assay: Antimalarial activity against chloroquine-sensitive Plasmodium falciparum D6 infected in human erythrocytes by SYBR green 1-based fluorescence assay; assay type: functional, organism-based
HepG2 = assay: Cytotoxicity against human HepG2 cells measured after 24 to 36 hrs by resazurin dye based fluorescence assay; assay type: cell-based
[7] = Half life in mouse liver microsomes at 1 uM by LC-MS analysis; assay type: ADME, Microsome
[8] = Selectivity index, ratio of IC50 for human HepG2 cells to IC50 for chloroquine-sensitive Plasmodium falciparum D6 infected in human erythrocytes; assay type: toxicity, cell-based; details: read-out: Ratio IC50
Plasmodium berghei = assay: Antimalarial activity against luciferase-expressing Plasmodium berghei ANKA 676m1cl1 sporozoites infected in human HepG2A16 cells measured after 45 hrs by luciferase-luciferin based reporter assay; assay type: functional, organism-based; details: ANKA 676m1cl1, HepG2A16, 45 h
Plasmodium falciparum [9] = assay: Antimalarial activity against atovaquone-resistant Plasmodium falciparum Tm90-C2B infected in human erythrocytes by SYBR green 1-based fluorescence assay; assay type: functional, organism-based
Plasmodium falciparum [10] = assay: Antimalarial activity against Plasmodium falciparum 3D7 infected in human erythrocytes after 72 hrs by SYBR green 1-based fluorescence assay; assay type: functional, organism-based; details: 3D7, 72 h
Plasmodium falciparum [11] = assay: Antimalarial activity against multidrug-resistant Plasmodium falciparum Dd2 infected in human erythrocytes by SYBR green 1-based fluorescence assay; assay type: functional, organism-based
Plasmodium falciparum [12] = assay: Antimalarial activity against drug-resistant Plasmodium falciparum 3D7 harboring A82T/V259L double mutant infected in human erythrocytes after 72 hrs by SYBR green 1-based fluorescence assay; assay type: functional, organism-based; details: 3D7, 72 h
Plasmodium falciparum [13] = assay: Antimalarial activity against drug-resistant Plasmodium falciparum Dd2 harboring M133I mutant infected in human erythrocytes after 72 hrs by SYBR green 1-based fluorescence assay; assay type: functional, organism-based; details: Dd2, 72 h
[14] = Mutagenicity in Salmonella typhimurium TA98 assessed as increase in revertant colonies up to 10 uM in absence of S9 fraction by Ames test; assay type: toxicity; details: salmonella enterica subsp. enterica serovar typhimurium
[15] = Mutagenicity in Salmonella typhimurium TA98 assessed as increase in revertant colonies up to 10 uM in presence of S9 fraction by Ames test; assay type: toxicity, subcellular; details: salmonella enterica subsp. enterica serovar typhimurium
[16] = Mutagenicity in Salmonella typhimurium TA100 assessed as increase in revertant colonies up to 10 uM in absence of S9 fraction by Ames test; assay type: toxicity; details: salmonella enterica subsp. enterica serovar typhimurium
[17] = Mutagenicity in Salmonella typhimurium TA100 assessed as increase in revertant colonies up to 10 uM in presence of S9 fraction by Ames test; assay type: toxicity, subcellular; details: salmonella enterica subsp. enterica serovar typhimurium
hERG (KCNH2) = hERG (KCNH2) (Homo sapiens, UniProt Q12809); assay: Inhibition of human ERG expressed in CHOK1 cells at 10 uM by automated patch clamp method relative to control; assay type: cell-based; details: CHO-K1 cells that express hERG
hERG (KCNH2), sequence (Q12809 whole entry): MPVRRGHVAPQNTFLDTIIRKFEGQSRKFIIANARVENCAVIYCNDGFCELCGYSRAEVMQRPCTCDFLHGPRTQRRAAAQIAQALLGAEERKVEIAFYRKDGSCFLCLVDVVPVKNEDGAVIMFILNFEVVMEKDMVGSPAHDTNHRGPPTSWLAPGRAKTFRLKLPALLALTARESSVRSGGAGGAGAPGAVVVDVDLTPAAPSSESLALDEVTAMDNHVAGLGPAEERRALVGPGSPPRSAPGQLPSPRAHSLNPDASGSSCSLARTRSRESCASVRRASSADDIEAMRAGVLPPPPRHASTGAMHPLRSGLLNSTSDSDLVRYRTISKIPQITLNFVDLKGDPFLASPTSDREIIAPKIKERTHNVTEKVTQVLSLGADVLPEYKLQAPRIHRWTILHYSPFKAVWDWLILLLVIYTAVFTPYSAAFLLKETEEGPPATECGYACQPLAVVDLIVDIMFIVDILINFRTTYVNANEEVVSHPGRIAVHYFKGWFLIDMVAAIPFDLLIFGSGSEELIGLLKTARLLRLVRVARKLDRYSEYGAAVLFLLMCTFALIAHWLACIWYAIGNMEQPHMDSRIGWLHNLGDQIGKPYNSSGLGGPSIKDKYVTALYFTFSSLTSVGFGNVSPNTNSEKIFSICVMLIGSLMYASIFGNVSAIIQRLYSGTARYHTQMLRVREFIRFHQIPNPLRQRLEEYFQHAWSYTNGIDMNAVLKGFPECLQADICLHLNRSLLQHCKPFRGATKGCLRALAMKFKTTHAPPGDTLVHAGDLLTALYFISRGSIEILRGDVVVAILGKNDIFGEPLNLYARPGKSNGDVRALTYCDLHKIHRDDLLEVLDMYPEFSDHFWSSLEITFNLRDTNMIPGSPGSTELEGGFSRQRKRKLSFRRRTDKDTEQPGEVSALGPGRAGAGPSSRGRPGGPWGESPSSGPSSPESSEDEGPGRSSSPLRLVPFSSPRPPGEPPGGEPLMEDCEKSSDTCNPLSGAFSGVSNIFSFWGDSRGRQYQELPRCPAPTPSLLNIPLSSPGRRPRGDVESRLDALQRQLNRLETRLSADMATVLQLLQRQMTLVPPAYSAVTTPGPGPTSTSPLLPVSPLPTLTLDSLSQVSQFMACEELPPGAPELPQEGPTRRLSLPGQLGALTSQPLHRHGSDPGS

Plasmodium yoelii = assay: Antimalarial activity against blood stage Plasmodium yoelii MR4 MRA-428 infected in CF1 mouse assessed as suppression of parasitemia administered once daily via oral gavage for 4 days starting from 24 hrs post-infection and measured post-last dose by Giemsa-staining based microscopic analysis; assay type: functional

| SMILES | pIC50 (Plasmodium falciparum [1]) | inhibition (Plasmodium falciparum [2]) | pIC50 (Plasmodium falciparum [3]) | half-life at 1 µM [4] | pIC50 (Plasmodium falciparum [5]) | pIC50 (Plasmodium falciparum [6]) | pIC50 (HepG2) | half-life at 1 µM [7] | selectivity ratio [8] | pIC50 (Plasmodium berghei) | pIC50 (Plasmodium falciparum [9]) | pIC50 (Plasmodium falciparum [10]) | pIC50 (Plasmodium falciparum [11]) | pIC50 (Plasmodium falciparum [12]) | also measured |
| --- | --- | --- | --- | --- | --- | --- | --- | --- | --- | --- | --- | --- | --- | --- | --- |
| CCN(CC)CCOc1ccc2[nH]c3cc(Cl)ccc3c(=O)c2c1 | 7.09 | inactive | 6.45 | > 60 min | 6.47 | 6.96 | 4.52 | 34 min | 272 | 6.10 | 7.01 | 6.58 | 6.44 to 6.88 | 6.55 | – |
| CCN(CC)CCCC(C)Nc1c2ccc(Cl)cc2nc2ccc(OC)cc12 (configuration not stated) [QUINACRINE] | – | inactive | 7.74 | – | 7.54 | – | – | – | – | – | – | – | 7.54 | – | pIC50 (Plasmodium falciparum [13]): 7.64 |
| CCN(CC)CCCC(C)Nc1ccnc2cc(Cl)ccc12 (configuration not stated) [CHLOROQUINE] | – | inactive | 6.59 | – | – | – | – | – | – | – | – | – | – | – | – |
| O=c1c2ccc(OCCNC34CC5CC(CC(C5)C3)C4)cc2[nH]c2ccc(Cl)c(Cl)c12 | 6.75 | inactive | 5.96 | – | – | 7.52 | 5.00 | – | 333 | 7.07 | 6.79 | – | 6.41 to 7.11 | – | – |
| Clc1ccc2c(N3CCN(CCCN4CCN(c5ccnc6cc(Cl)ccc56)CC4)CC3)ccnc2c1 [PIPERAQUINE] | – | inactive | 8.15 | – | 8.13 | – | – | – | – | – | – | 8.14 | – | 8.30 | pIC50 (Plasmodium falciparum [13]): 8.00 |
| CCCCCCOc1ccc2c(=O)c3c(F)cc(F)cc3[nH]c2c1 | 10.30 | – | – | – | – | 10.59 | < 4.00 | – | > 100000 | 7.14 | 8.27 | – | 10.39 | – | Activity [14]: Non-Toxic; Activity [15]: Non-Toxic; Activity [16]: Non-Toxic; Activity [17]: Non-Toxic; inhibition at 10 µM (hERG (KCNH2)): 20%; ED50 (Plasmodium yoelii): 1.09 mg/kg.day; ED90 (Plasmodium yoelii): 12.7 mg/kg.day |
| CCCCN(CCCC)CC(O)c1cc(Cl)cc2c1-c1ccc(Cl)cc1/C2=C/c1ccc(Cl)cc1 (configuration not stated) [LUMEFANTRINE] | – | inactive | 8.19 | – | 8.44 | – | – | – | – | – | – | 8.52 | 8.24 | 8.35 | pIC50 (Plasmodium falciparum [13]): 8.44 |
| O[C@@H](c1cc(C(F)(F)F)nc2c(C(F)(F)F)cccc12)[C@H]1CCCCN1 [(S,R)-MEFLOQUINE] | – | inactive | 7.64 | – | 7.89 | – | – | – | – | – | – | – | 7.74 | – | pIC50 (Plasmodium falciparum [13]): 7.85 |
| CCN(CC)CCOc1ccc2c(=O)c3c(F)cc(F)cc3[nH]c2c1 | 7.92 | inactive | 6.28 | – | 7.22 | 8.11 | 4.11 | – | 9950 | – | 5.70 | 7.82 | 7.70 to 7.80 | 5.94 | ED50 (Plasmodium yoelii): 1.62 mg/kg.day; ED90 (Plasmodium yoelii): 9.91 mg/kg.day |
| CC(C)(C)NCCOc1ccc2c(=O)c3c(Cl)c(Cl)ccc3[nH]c2c1 | 6.53 | inactive | 5.51 | – | – | 6.97 | 4.42 | – | 362 | – | < 5.60 | – | 6.17 to 6.86 | – | – |
| CCCN(CCC)CCOc1ccc2c(=O)c3c(Cl)cc(Cl)cc3[nH]c2c1 | 11.22 | – | – | > 60 min | – | – | – | > 60 min | – | 8.43 | 6.82 | – | 11.52 | – | Activity [14]: Non-Toxic; Activity [15]: Non-Toxic; Activity [16]: Non-Toxic; Activity [17]: Non-Toxic; inhibition at 10 µM (hERG (KCNH2)): 38%; ED50 (Plasmodium yoelii): 0.21 mg/kg.day; ED90 (Plasmodium yoelii): 3.54 mg/kg.day |
| O=c1c2ccc(OCCN(CCC(F)(F)F)CCC(F)(F)F)cc2[nH]c2cc(F)cc(F)c12 | 10.80 | – | – | 20 min | – | 11.70 | < 4.00 | 33 min | > 100000 | 10.05 | 8.70 | – | 10.82 | – | Activity [14]: Non-Toxic; Activity [15]: Non-Toxic; Activity [16]: Non-Toxic; Activity [17]: Non-Toxic; inhibition at 10 µM (hERG (KCNH2)): 17%; ED50 (Plasmodium yoelii): 0.66 mg/kg.day; ED90 (Plasmodium yoelii): 2.53 mg/kg.day |
| O=C1C(O)=C([C@H]2CC[C@H](c3ccc(Cl)cc3)CC2)C(=O)c2ccccc21 [ATOVAQUONE] | – | inactive | 8.39 | – | – | – | – | – | – | – | – | 9.30 | – | 8.72 | pIC50 (Plasmodium falciparum [13]): 8.16 |
| CN1CCCC1CCOc1ccc2c(=O)c3c(Cl)c(Cl)ccc3[nH]c2c1 (configuration not stated) | 6.36 | inactive | 5.51 | – | – | 7.32 | 4.32 | – | 992 | – | 6.43 | – | 6.21 to 6.76 | – | – |
| CCN(CC)CCOc1ccc2c(=O)c3c(Cl)cc(Cl)cc3[nH]c2c1 | 7.68 | inactive | 6.18 | – | 5.97 | 8.09 | 4.87 | – | 1630 | – | 6.33 | 7.80 | 7.51 to 7.66 | 6.21 | ED50 (Plasmodium yoelii): 3.09 mg/kg.day; ED90 (Plasmodium yoelii): 50.2 mg/kg.day |
| CCN(CC)CCOc1ccc2c(=O)c3ccc(Br)cc3[nH]c2c1 | 7.43 | – | – | > 60 min | – | 7.60 | < 4.40 | > 60 min | > 1600 | 7.00 | 6.01 | – | 7.47 | – | – |
| O=c1c2ccc(OCCCCl)cc2[nH]c2ccc(Cl)c(Cl)c12 | 8.51 | inactive | 6.26 | – | 6.49 | 8.49 | < 4.00 | – | > 31200 | – | 5.98 | 7.95 | 7.66 to 7.77 | 6.22 | – |
| CCN(CC)CCCOc1ccc2c(=O)c3c(Cl)cc(Cl)cc3[nH]c2c1 | 6.94 | – | – | 9 min | – | 7.72 | 3.89 | 16 min | 6840 | 6.86 | 6.64 | – | 7.35 | – | Activity [14]: Non-Toxic; Activity [15]: Non-Toxic; Activity [16]: Non-Toxic; Activity [17]: Non-Toxic; inhibition at 10 µM (hERG (KCNH2)): 59%; ED50 (Plasmodium yoelii): 0.43 mg/kg.day; ED90 (Plasmodium yoelii): 24.1 mg/kg.day |
| O=c1c2ccc(OCCCCCl)cc2[nH]c2cc(F)cc(F)c12 | 9.30 | – | – | 14 min | – | 9.92 | < 4.00 | 6 min | > 100000 | 7.77 | 7.40 | – | 9.80 | – | – |
| C=C[C@H]1CN2CC[C@H]1C[C@H]2[C@H](O)c1ccnc2ccc(OC)cc12 [QUININE] | – | inactive | 6.67 | – | 6.70 | – | – | – | – | – | – | – | 6.60 | – | pIC50 (Plasmodium falciparum [13]): 6.71 |
| CCN(CC)CCCOc1ccc2c(=O)c3ccc(Cl)cc3[nH]c2c1 | 6.53 | – | – | > 60 min | – | 6.57 | 4.71 | 34 min | 72 | 6.36 | 5.72 | – | 6.60 | – | – |
